The melting point is the temperature, or range, at which the solid turns liquid.

With `Cn1c(-c2ccc3ccccc3c2)nnc1S(C)=O` (centres undefined), the melting point lay in the range of 224 to 226 °C.

Turning to `Clc1cccc(Nc2ncnc3[nH]c(-c4ccccn4)cc23)c1`, the melting point was > 300 °C.

In the case of `CC(C)(C)OC(=O)N1CCN(c2ccc(Nc3nc(N)c(C(=O)c4c(Cl)cccc4Cl)s3)cc2)CC1`, the melting point was in the range of 165 to 167 °C.

With `O=C(CBr)OCCCCOC(=O)CBr`, the melting point was 62 to 62.5 °C.

For `CC(=O)NCc1ncccc1OCc1ccccc1`, the melting point lay in the range of 94 to 96 °C.

As to `Cc1c(NC(=O)c2ccc(OC[C@@H]3CCCO3)cc2)ccc2cc(CN[C@@H]3CCCC[C@H]3O)cnc12`, the melting point lay within 142 to 143 °C.

Turning to `CCNC(=N)NC(=O)c1c(-c2ccccc2)noc1C`, the melting point amounted to 215 °C.

`CC1NC(=O)NN=C1c1ccc(NCc2cccnc2)cc1` (centres undefined): the melting point was in the range of 254 to 256 °C.

`Cc1cc(C)n2nc(S(=O)(=O)N(C)c3c(Cl)cccc3Cl)nc2n1` had a melting point of 220 to 222 °C.

Molecule `c1cc(OC[C@H]2CO2)cc(-c2noc3ncccc23)c1` showed a melting point of 91 to 93 °C.

`CN1CC(=O)c2c(c3ccccc3n2C)S1(=O)=O`: the melting point turned out to be 180 °C.

Turning to `COc1cc2c(c(Cl)c1Cl)C(=O)C(CCCCl)C2` (centres undefined), the melting point lay in the range of 130 to 132 °C.

As for `CC(C)Oc1c(CO)cnc2c(Cl)cccc12`, the melting point lay in the range of 88 to 89 °C.

`N#Cc1c(O)cc(C(F)(F)F)cc1Cl`: the melting point turned out to be 138 °C.

Consider `COC(=O)[C@H](c1ccccc1Cl)N1CCc2sc(OC(=O)c3ccc([N+](=O)[O-])cc3)cc2C1`, for which the melting point lay within 100 to 102 °C.

As for `O=[N+]([O-])C=C1NCCCN1Cc1ccc(Cl)cc1`, the melting point was 172 to 174 °C.

The molecule `O=C(O)C1=CC(CF)(CF)Oc2ccc([N+](=O)[O-])cc21` displayed a melting point of 171 to 172 °C.

For `CNc1nc(-c2cccc(NC(=O)c3ccc(N(C)C)nc3)c2)c2cc(OC)c(OC)cc2n1`, the melting point lay within 149 to 151 °C.

As for `COc1cc(N)c(Cl)cc1C(=O)NCC1CCN(CCOCc2ccccc2)CC1`, the melting point was 123 to 125 °C.

Molecule `COc1ccc(C(=O)Nc2ccc(OCCCl)cc2)c(N)c1` registered a melting point of 167 to 168 °C.

With `Cc1cc(F)ccc1-c1ccc2c(c1)NC(=O)CC(c1cccc(-n3ccnc3)c1)=N2`, the melting point lay within 170 to 172 °C.

`Cc1ccc(CCO)c(NCc2ccc3nc(NCCCN4CCOCC4)n(Cc4ncccc4O)c3c2)c1` displayed a melting point of 192 °C.

Turning to `Nc1nc(C(F)(F)C(F)(F)F)nn1-c1c(Cl)cc(C(F)(F)F)cc1Cl`, the melting point was 181 to 183 °C.

In turn, `COc1cc(Nc2nccc(-c3nc(C)c(C)s3)n2)cc(OC)c1OC` had a melting point of 207 °C.

In turn, `CN1CCN(c2ccccc2C=C2CCCN(c3ccc(Cl)cc3)C2=O)CC1` displayed a melting point of 177 to 178 °C.

In turn, `CN(C)CC=Cc1ccc2c(c1)CCCN2C(=O)c1ccc(-c2ccc(Cl)cc2)cc1` had a melting point of 162 to 164 °C.

`CCCCCCCCCCCCCCCCCCOc1cc(OCCCCC(=O)OC)cc(C(=O)OCc2ccccc2)c1` had a melting point of 40 to 42 °C.

Molecule `COc1cc(C(=O)N(C)CC(CCN2CCC(C(=O)c3nc4ccccc4n3Cc3ccccn3)CC2)c2ccc(F)cc2)cc(OC)c1OC` (centres undefined) came in with a melting point of 30 to 35 °C.

Take `Cc1cc2c(s1)Nc1ccccc1N=C2N1CCN(C)CC1`: the melting point fell in the range of 190 to 193 °C.

`CC(C)c1cccc(C(C)C)c1NC(=O)NS(=O)(=O)Oc1c(C(C)C)cccc1C(C)C` gave a melting point of 186 to 189 °C.

Turning to `CC(=O)CC(=O)Nc1ccc(N)c([N+](=O)[O-])c1`, the melting point is 146 to 147 °C.

Turning to `CC1(C(=O)c2c[nH]c3ncc(-c4cccc(N5CCCC5)c4)nc23)CCCCC1`, the melting point lay in the range of 180 to 182 °C.

Consider `NCC(=O)NC(Cc1ccncc1)c1ccccc1` (centres undefined), for which the melting point was in the range of 145 to 147 °C.

`CC1(C)OC(=O)[C@H](CC(=O)O)O1` had a melting point of 108 to 110 °C.

For `Cc1cc(OCCc2nc(-c3ccc(-c4ccccc4)cc3)oc2C)ccc1OC(C)(C)C(=O)O`, the melting point was in the range of 122 to 123 °C.

For `CCOCCOc1c(C2CCN(CCCCNC(=O)c3ccc(-c4ccc(C(F)(F)F)cc4)cc3)CC2)ccc2c1CCCC2`, the melting point came to 190 °C.

The molecule `COC(=O)c1cccc(COc2cccc(OCc3ccc4ccccc4n3)c2)c1` came in with a melting point of 93 to 94 °C.

Molecule `NC(=O)c1sc(-n2cnc3cnccc32)cc1OCc1ccccc1C(F)(F)F` gave a melting point of 226 to 227 °C.

Take `CCOC(=O)Cn1c(=O)c(=O)[nH]c2ccc3ccc(N)cc3c21`: the melting point is > 250 °C.

In turn, `OCC#Cc1cccnc1` displayed a melting point of 99 to 100 °C.

In turn, `O=C1Nc2ccccc2C12CCCC2Br` (centres undefined) showed a melting point of 238 to 240 °C.

The molecule `CCCCOc1cc(/C=C(\OCC)C(=O)O)ccc1OCCc1ccc(NS(C)(=O)=O)cc1` displayed a melting point of 141 °C.

Turning to `CN1CCc2cc(O)c(O)c(Sc3ccc([N+](=O)[O-])cc3)c2CC1`, the melting point was 125 to 127 °C.

`O=C1CCN(CC=Cc2ccccc2)CC1C(c1ccccc1)c1ccccc1` (centres undefined) came in with a melting point of 114 to 115 °C.

As to `COc1cc(OC)cc(C2=NC(CO)Cc3cc(OC)c(OC)cc32)c1` (centres undefined), the melting point lay in the range of 59 to 62 °C.

`CC12CCC3=C(CCC(CCCC#N)O3)C1=CCC2=O` (centres undefined): the melting point worked out at 100 °C.

`CC(=O)CNC1(c2ccc(OC(C)=O)cc2)Sc2ccccc2N(C)C1=O` (centres undefined) returned a melting point of 182 to 184 °C.

Consider `Cc1cc(-n2ccnc2)c2cccc(OCc3c(Cl)ccc(S(=O)(=O)N4CCCC4C(=O)NCC4CCN(CCC(=O)OC(C)(C)C)CC4)c3Cl)c2n1` (centres undefined), for which the melting point came to 92 °C.

As to `CC(C)(C)OC(=O)NCC12CCC1CNC2` (centres undefined), the melting point lay in the range of 83 to 86 °C.

For `CON=C(C(=O)OC)c1cccc(OC)c1`, the melting point is 66 to 68 °C.

Turning to `O=C(N[C@@H](Cc1c[nH]c2ccccc12)C(=O)O)C(CS)C(F)(F)F` (some centres undefined), the melting point fell in the range of 144 to 147 °C.

Turning to `CSCC[C@@H](NC(=O)OC(C)(C)C)C(=O)NCC(=O)O`, the melting point was 124 to 126 °C.

`CSc1ccc(-c2c(Cl)nc(Cl)nc2-c2ccccc2)cc1`: the melting point was 88 to 90 °C.

The molecule `COc1cc(Sc2ccncc2)ccc1[N+](=O)[O-]` showed a melting point of 97 to 100 °C.

`CCOC(=O)C1CN(c2cc3ccccc3c(=O)[nH]2)CCN1C` (centres undefined) displayed a melting point of 105 to 109 °C.

For `CC1Cc2ccc(N3C(=O)C4=C(CCCC4)C3=O)cc2O1` (centres undefined), the melting point was 114 to 118 °C.

Take `C=C(C)CCC(=O)C(C(=O)OCC)C1c2ccccc2C(=O)N1c1ccc2ccc(Cl)nc2n1` (centres undefined): the melting point was 125 °C.

In the case of `Cc1nc[nH]c1CSCCN=C(NC#N)NCCCCCCCN`, the melting point was in the range of 84 to 87 °C.

Regarding `Cn1cc(-c2ccc(Cl)cc2)c(=O)c(-c2cccc(Cl)c2)c1`, the melting point lay within 170 to 172 °C.

In turn, `Cc1ccc(S(=O)(=O)N2[C@@H](c3ncn(C)n3)CC[C@H]2c2ccc(F)cc2)cc1` (racemic) registered a melting point of 160 °C.

As for `Cc1ccc(-c2ccc3c(c2)C=C(C(=O)Nc2ccc(CCl)cc2)CCO3)cc1`, the melting point was 164 °C.

Molecule `CC(C)C(S)C(=O)NC1(C(=O)NC(Cc2ccc(-c3ccsc3)nc2)C(=O)O)CCCC1` (centres undefined) came in with a melting point of 215 to 217 °C.

As to `CC1C(=O)N(c2ccc(O)cc2)C(=S)N1c1ccc(Oc2ccccc2)cc1` (centres undefined), the melting point was in the range of 202 to 204 °C.

With `CCCCC1NCCc2ccc(C(=O)N[C@@H](Cc3cc(F)cc(F)c3)[C@H](O)CNCc3cccc(CC)c3)cc21` (some centres undefined), the melting point lay in the range of 121 to 124 °C.

`CC(C)Nc1nc(NC(C)C)nc(OC(F)F)n1` displayed a melting point of 81 to 82 °C.

The molecule `CN1CCC(=C2c3ccccc3COc3ccc(C#N)cc32)CC1` registered a melting point of 134 to 136 °C.

`CCCCOc1ccc(NC(=O)Nc2ccc(S(N)(=O)=O)cc2)cc1` returned a melting point of 236 to 239 °C.

For `O=c1[nH]cc(-c2cccc(Cl)c2)c2ncccc12`, the melting point amounted to 252 °C.

As for `COC(=O)[C@@H]1NC(=O)[C@@H]1NC(=O)OC(C)(C)C` (relative stereo), the melting point was in the range of 140 to 144 °C.

`CC(=O)Oc1cccc(-c2cc(-c3ccncc3)c(C#N)c(=O)[nH]2)c1` returned a melting point of 284 to 286 °C.

Regarding `Cc1oc2c(-n3c(=O)cc(C(F)(F)F)n(C)c3=O)c(F)cc(Cl)c2c1CC(N)=O`, the melting point fell in the range of 127 to 129 °C.

In the case of `CC(C)NC(=O)c1cccc(I)c1C(=O)Nc1cc(C(F)(F)F)nn1-c1ccccc1Cl`, the melting point lay within 226 to 228 °C.

In turn, `ClCc1csc(/C=C/c2ccccc2)n1` registered a melting point of 88 to 89 °C.

For the molecule `CCN(CC)c1ccc(C(c2ccc(N(C)C)cc2)c2ccc(N(C)C)cc2)c(O)c1`, the melting point is 94 to 95 °C.

Regarding `Cn1ccnc1Sc1ccc(Nc2c(C#N)cnc3sccc23)cc1Cl`, the melting point was > 240 °C.

`COc1cc(C(F)(F)F)sc1C(=O)O` registered a melting point of 131 to 132 °C.

Take `OC(c1cc(F)ccc1F)c1ccncc1Cl` (centres undefined): the melting point was 169 to 170 °C.

`CC(C)Sc1c(N)cccc1C#N` yielded a melting point of 82 °C.

As for `COc1ccc2c(c1)CN(C(=O)CN1CCOCC1)N=C2Cc1c(Cl)cncc1Cl`, the melting point is 180 to 182 °C.

As to `O=C(Nc1ccc(CN2CCCC2)cc1)C1=Cc2cc(-c3ccccc3)ccc2CC1`, the melting point lay within 186 to 187 °C.

The molecule `CCS(=O)(=O)N(Cc1ccccc1)Cc1ccc2[nH]cc(CCCN3CCN(c4ncncc4OC)CC3)c2c1` gave a melting point of 73 to 75 °C.

`COCc1cc(-c2cc3c(cc2F)c(=O)c(C(=O)O)cn3C2CC2)cc(C)n1` returned a melting point of 192 to 193 °C.

`CCOC(=O)Nc1ccc(-c2cccs2)s1`: the melting point stood at 76 °C.

With `COc1c(CO)n(C)c(=O)c2ccc(Cl)cc12`, the melting point was in the range of 195 to 196 °C.

For `N#Cc1ccc(CN(O)Cc2ccc(C#N)cc2)cc1`, the melting point lay in the range of 172 to 175 °C.

Molecule `CC(C)OC(=O)CCC(=O)c1ccc(-c2ccccc2F)cc1` returned a melting point of 65 to 66 °C.

In turn, `COC(=O)NNC(=S)Cc1ccc(C)cc1` returned a melting point of 104 to 105 °C.

As for `Cn1c(C(F)(F)F)c(I)c(=O)n(C)c1=O`, the melting point fell in the range of 149 to 151 °C.

Take `CC1(C)CCC(C)(C)c2cc(-c3cc(-c4ccc(C(=O)O)cc4)ccc3OCCCCNC3CC3)ccc21`: the melting point came out at 160 °C.

Values taken from a melting point compilation (Tetko et al.; mined from patent text by program, amines drawn as free bases though some values may be those of a salt).
